Assay results as given in patent US11845759B2, “Opioid compounds and uses thereof” (priority 2018, dated 2023).
pEC50, pKi: −log10 of the molar value.

Tests used:
[1] = Hydrolysis in simulated gastric fluid at 37° C.; details: 6,14-bis-PEG-Oxycodone (86%, 14% mono-PEG) in simulated gastric fluid (pH=1.2)
[2] = Hydrolysis in simulated intestinal fluid at 37° C.; details: for 6,14-bis-PEG-Oxy (%): 6,14-bis-PEG-Oxycodone (86%, 14% mono-PEG) in simulated Intestinal fluid (pH=6.8), 37° C.; for 6-lauroyl-Oxy (%): 6-lauroyl-Oxycodone, simulated intestinal fluid with 0.5% Polysorbate 80, 37° C.
μ-opioid receptor [3] = target: T1, μ-opioid receptor (Homo sapiens (Human), UniProt P35372); format: binding
[4] = Hydrolysis in human blood serum at 37° C.; details: 6,14-bis-PEG-Oxycodone (86%, 14% mono-PEG) in human serum, 37° C.
μ-opioid receptor [5] = target: T1, μ-opioid receptor; assay: [35S]GTPγS μ-opioid receptor functional assay; format: biochemical; details: for % Response Agonist: Conc. 3 μM, criteria ≥± 50%
[6] = Hydrolysis in HCl solutions; format: physicochemical; details: 6,14-bis-lauroyl-Oxycodone, 1.0N HCl (75% EtOH)
[7] = Hydrolysis in pH buffer/EtOH solutions; format: physicochemical
[8] = 6,14-bis-lauroyl-Oxycodone, pH 7 buffer (75% EtOH), 0 h
[9] = 6,14-bis-lauroyl-Oxycodone, pH 7 buffer (75% EtOH), 0.5 h
[10] = 6,14-bis-lauroyl-Oxycodone, pH 7 buffer (75% EtOH), 2 h
[11] = 6,14-bis-lauroyl-Oxycodone, pH 7 buffer (75% EtOH), 4 h
[12] = 6,14-bis-lauroyl-Oxycodone, pH 7 buffer (75% EtOH), 8 h
[13] = 6,14-bis-lauroyl-Oxycodone, pH 7 buffer (75% EtOH), 24 h
[14] = 6,14-bis-lauroyl-Oxycodone, pH 9 buffer (75% EtOH), 0 h
[15] = 6,14-bis-lauroyl-Oxycodone, pH 9 buffer (75% EtOH), 0.5 h
[16] = 6,14-bis-lauroyl-Oxycodone, pH 9 buffer (75% EtOH), 2 h
[17] = 6,14-bis-lauroyl-Oxycodone, pH 9 buffer (75% EtOH), 8.5 h
[18] = 6,14-bis-lauroyl-Oxycodone, pH 9 buffer (75% EtOH), 22.5 h
[19] = 6,14-bis-lauroyl-Oxycodone, pH 11 buffer (75% EtOH), 0 h
[20] = 6,14-bis-lauroyl-Oxycodone, pH 11 buffer (75% EtOH), 0.17 h
[21] = 6,14-bis-lauroyl-Oxycodone, pH 11 buffer (75% EtOH), 0.5 h
[22] = 6,14-bis-lauroyl-Oxycodone, pH 11 buffer (75% EtOH), 2 h
[23] = 6,14-bis-lauroyl-Oxycodone, pH 11 buffer (75% EtOH), 8.5 h
[24] = 6,14-bis-lauroyl-Oxycodone, pH 11 buffer (75% EtOH), 22.5 h
[25] = 6-lauroyl-Oxycodone, pH 9 buffer (75% EtOH), 0 h
[26] = 6-lauroyl-Oxycodone, pH 9 buffer (75% EtOH), 0.5 h
[27] = 6-lauroyl-Oxycodone, pH 9 buffer (75% EtOH), 2 h
[28] = 6-lauroyl-Oxycodone, pH 9 buffer (75% EtOH), 4 h
[29] = 6-lauroyl-Oxycodone, pH 9 buffer (75% EtOH), 8 h
[30] = 6-lauroyl-Oxycodone, pH 11 buffer (75% EtOH), 0 h
[31] = 6-lauroyl-Oxycodone, pH 11 buffer (75% EtOH), 0.5 h
[32] = 6-lauroyl-Oxycodone, pH 11 buffer (75% EtOH), 4 h
[33] = 6-lauroyl-Oxycodone, pH 11 buffer (75% EtOH), 8 h

## COCCOCCOCC(=O)OC1=CCC2(OC(=O)COCCOCCOC)[C@H]3Cc4ccc(OC)c5c4[C@@]2(CCN3C)C1O5 (some centres unmarked) [6,14-bis-PEG oxycodone]
[1]; 0 h
  6,14-bis-PEG-Oxy (%): 86%
[1]; 1 h
  6,14-bis-PEG-Oxy (%): 77.7%
[1]; 2 h
  6,14-bis-PEG-Oxy (%): 72.5%
[1]; 4 h
  6,14-bis-PEG-Oxy (%): 65.6%
[1]; 20 h
  6,14-bis-PEG-Oxy (%): 30.2%
[2]; 0 h
  6,14-bis-PEG-Oxy (%): 86%
[2]; 0.17 h
  6,14-bis-PEG-Oxy (%): 0%
μ-opioid receptor [3]
  pKi: 7.28
  Ki compared with that of oxycodone (in words): comparable
[4]; 0 h
  6,14-bis-PEG-Oxy (%): 86%
[4]; 0.17 h
  6,14-bis-PEG-Oxy (%): 0.71%
[4]; 1 h
  6,14-bis-PEG-Oxy (%): 0%
μ-opioid receptor [5]
  pEC50: 6.28
  % Response Agonist: 85%
μ-opioid receptor [5]; conclusion from Table 23
  functional profile at μ-opioid receptor (in words): μ-receptor agonist as effective as oxycodone

## CCCCCCCCCCCC(=O)OC1=CC[C@@]2(OC(=O)CCCCCCCCCCC)[C@H]3Cc4ccc(OC)c5c4[C@@]2(CCN3C)C1O5 (some centres unmarked) [6,14-bis-lauroyl oxycodone]
[6]; 0 h
  6,14-bis-lauroyl-Oxy (%): 99%
  Oxy (%): 0%
  mono-lauroyl-Oxy (%): 0%
[6]; 0.5 h
  6,14-bis-lauroyl-Oxy (%): 97%
  Oxy (%): 0%
  mono-lauroyl-Oxy (%): 2.9%
[6]; 2 h
  6,14-bis-lauroyl-Oxy (%): 95.1%
  Oxy (%): 0%
  mono-lauroyl-Oxy (%): 4.7%
[6]; 4 h
  6,14-bis-lauroyl-Oxy (%): 94%
  Oxy (%): 0%
  mono-lauroyl-Oxy (%): 6%
[6]; 8 h
  6,14-bis-lauroyl-Oxy (%): 91.4%
  Oxy (%): 0%
  mono-lauroyl-Oxy (%): 8.6%
[6]; 24 h
  6,14-bis-lauroyl-Oxy (%): 77.1%
  Oxy (%): 0%
  mono-lauroyl-Oxy (%): 22.9%
[7]; [8]
  6,14-bis-lauroyl-Oxy (%): 99%
  Oxy (%): 0%
  mono-lauroyl-Oxy (%): 0%
[7]; [9]
  6,14-bis-lauroyl-Oxy (%): 98%
  Oxy (%): 0%
  mono-lauroyl-Oxy (%): 1%
[7]; [10]
  6,14-bis-lauroyl-Oxy (%): 98%
  Oxy (%): 0%
  mono-lauroyl-Oxy (%): 2%
[7]; [11]
  6,14-bis-lauroyl-Oxy (%): 98%
  Oxy (%): 0%
  mono-lauroyl-Oxy (%): 2%
[7]; [12]
  6,14-bis-lauroyl-Oxy (%): 98%
  Oxy (%): 0%
  mono-lauroyl-Oxy (%): 2%
[7]; [13]
  6,14-bis-lauroyl-Oxy (%): 94.3%
  Oxy (%): 0%
  mono-lauroyl-Oxy (%): 5.7%
[7]; [14]
  6,14-bis-lauroyl-Oxy (%): 99%
  Oxy (%): 0%
  mono-lauroyl-Oxy (%): 0%
[7]; [15]
  6,14-bis-lauroyl-Oxy (%): 98.7%
  Oxy (%): 0%
  mono-lauroyl-Oxy (%): 1.3%
[7]; [16]
  6,14-bis-lauroyl-Oxy (%): 98.4%
  Oxy (%): 0%
  mono-lauroyl-Oxy (%): 1.6%
[7]; [17]
  6,14-bis-lauroyl-Oxy (%): 96.2%
  Oxy (%): 0%
  mono-lauroyl-Oxy (%): 3.8%
[7]; [18]
  6,14-bis-lauroyl-Oxy (%): 93.4%
  Oxy (%): 0%
  mono-lauroyl-Oxy (%): 6.6%
[7]; [19]
  6,14-bis-lauroyl-Oxy (%): 99%
  Oxy (%): 0%
  mono-lauroyl-Oxy (%): 0%
[7]; [20]
  6,14-bis-lauroyl-Oxy (%): 83.7%
  Oxy (%): 0.5%
  mono-lauroyl-Oxy (%): 16.3%
[7]; [21]
  6,14-bis-lauroyl-Oxy (%): 63.9%
  Oxy (%): 1%
  mono-lauroyl-Oxy (%): 33.1%
[7]; [22]
  6,14-bis-lauroyl-Oxy (%): 14.7%
  Oxy (%): 2.8%
  mono-lauroyl-Oxy (%): 60.5%
[7]; [23]
  6,14-bis-lauroyl-Oxy (%): 0%
  Oxy (%): 5.4%
  mono-lauroyl-Oxy (%): 94.6%
[7]; [24]
  6,14-bis-lauroyl-Oxy (%): 0%
  Oxy (%): 10.2%
  mono-lauroyl-Oxy (%): 89.8%
μ-opioid receptor [3]
  pKi: 4.65
  Ki compared with that of oxycodone (in words): significantly higher
  binding to μ-opioid receptor (in words): does not bind to μ-opioid receptor well

## COCCOCCOCC(=O)OC1=CC[C@@]2(O)[C@H]3Cc4ccc(OC)c5c4[C@@]2(CCN3C)C1O5 (some centres unmarked) [6-PEG oxycodone]
μ-opioid receptor [3]
  pKi: 7.66
  Ki compared with that of oxycodone (in words): comparable
μ-opioid receptor [5]
  pEC50: 6.41
  % Response Agonist: 90%

## CCCCCCCCCCCC(=O)OC1=CC[C@@]2(O)[C@H]3Cc4ccc(OC)c5c4[C@@]2(CCN3C)C1O5 (some centres unmarked) [6-lauroyl oxycodone]
[7]; [25]
  6-lauroyl-Oxy (%): 99%
  Oxy (%): 0%
[7]; [26]
  6-lauroyl-Oxy (%): 98%
  Oxy (%): 1%
[7]; [27]
  6-lauroyl-Oxy (%): 98%
  Oxy (%): 1%
[7]; [28]
  6-lauroyl-Oxy (%): 98%
  Oxy (%): 1%
[7]; [29]
  6-lauroyl-Oxy (%): 98%
  Oxy (%): 1%
[7]; [30]
  6-lauroyl-Oxy (%): 99%
  Oxy (%): 0%
[7]; [31]
  6-lauroyl-Oxy (%): 24.5%
  Oxy (%): 75.5%
[7]; [32]
  6-lauroyl-Oxy (%): 7.2%
  Oxy (%): 92.8%
[7]; [33]
  6-lauroyl-Oxy (%): 6.2%
  Oxy (%): 93.8%
[2]; 0 h
  6-lauroyl-Oxy (%): 99%
[2]; 0.17 h
  6-lauroyl-Oxy (%): 56.9%
[2]; 0.5 h
  6-lauroyl-Oxy (%): 54.8%
[2]; 1 h
  6-lauroyl-Oxy (%): 52.6%
[2]; 2 h
  6-lauroyl-Oxy (%): 50.8%
[2]; with additional fresh intestinal fluid 30 min
  6-lauroyl-Oxy (%): 18.6%
μ-opioid receptor [3]
  pKi: 7.02
  Ki compared with that of oxycodone (in words): comparable
μ-opioid receptor [5]
  pEC50: 6.00
  % Response Agonist: 52%
